Values quoted from earlier work in paper PMC5384962, “First-in-human studies of seletalisib, an orally bioavailable small-molecule PI3Kδ inhibitor for the treatment of immune and inflammatory diseases” (European Journal of Clinical Pharmacology, 2017).

Parameters: method as in ref 29 = [29]; 29. Infinity Pharmaceuticals (2015) Press release: Infinity reports topline results from Phase 2 study of duvelisib in rheumatoid arthritis.
Details: patients with moderate-to-severe RA; cited from earlier work

C[C@H](Nc1ncnc2nc[nH]c12)c1cc2cccc(Cl)c2c(=O)n1-c1ccccc1 [duvelisib]
phase II primary endpoint (ACR20 at week 12): failed to meet its phase II study primary endpoint
